Activity calls are given as the source filed them. The rule behind the calls is not given here.

The subject of the series is CCRIS mutagenicity, Ames/micronucleus/aberration tests. The series is described as follows: CCRIS mutagenicity studies.
Where [1] appears, read: Test System: AMES SALMONELLA TYPHIMURIUM, Strain/Indicator: TA98, Metabolic Activation: HAMSTER, LIVER, S-9, AROCLOR 1254, Method: STANDARD PLATE.
Where [2] appears, read: Test System: AMES SALMONELLA TYPHIMURIUM, Strain/Indicator: TA98, Metabolic Activation: NONE, Method: STANDARD PLATE.
The mark [3] stands for this setting: Test System: AMES SALMONELLA TYPHIMURIUM, Strain/Indicator: TA98, Metabolic Activation: RAT, LIVER, S-9, AROCLOR 1254, Method: STANDARD PLATE.
The mark [4] stands for this setting: Test System: AMES SALMONELLA TYPHIMURIUM, Strain/Indicator: TA100, Metabolic Activation: HAMSTER, LIVER, S-9, AROCLOR 1254, Method: STANDARD PLATE.
[5] abbreviates: Test System: AMES SALMONELLA TYPHIMURIUM, Strain/Indicator: TA100, Metabolic Activation: NONE, Method: STANDARD PLATE.
Where [6] appears, read: Test System: AMES SALMONELLA TYPHIMURIUM, Strain/Indicator: TA100, Metabolic Activation: RAT, LIVER, S-9, AROCLOR 1254, Method: STANDARD PLATE.
[7] abbreviates: Test System: AMES SALMONELLA TYPHIMURIUM, Strain/Indicator: TA1535, Metabolic Activation: HAMSTER, LIVER, S-9, AROCLOR 1254, Method: STANDARD PLATE.
The mark [8] stands for this setting: Test System: AMES SALMONELLA TYPHIMURIUM, Strain/Indicator: TA1535, Metabolic Activation: NONE, Method: STANDARD PLATE.
Setting [9] is: Test System: AMES SALMONELLA TYPHIMURIUM, Strain/Indicator: TA1535, Metabolic Activation: RAT, LIVER, S-9, AROCLOR 1254, Method: STANDARD PLATE.
Where [10] appears, read: Test System: AMES SALMONELLA TYPHIMURIUM, Strain/Indicator: TA1537, Metabolic Activation: HAMSTER, LIVER, S-9, AROCLOR 1254, Method: STANDARD PLATE.
Where [11] appears, read: Test System: AMES SALMONELLA TYPHIMURIUM, Strain/Indicator: TA1537, Metabolic Activation: NONE, Method: STANDARD PLATE.
[12] abbreviates: Test System: AMES SALMONELLA TYPHIMURIUM, Strain/Indicator: TA1537, Metabolic Activation: RAT, LIVER, S-9, AROCLOR 1254, Method: STANDARD PLATE.
[13] abbreviates: Test System: AMES SALMONELLA TYPHIMURIUM, Strain/Indicator: TA1538, Metabolic Activation: HAMSTER, LIVER, S-9, AROCLOR 1254, Method: STANDARD PLATE.
Where [14] appears, read: Test System: AMES SALMONELLA TYPHIMURIUM, Strain/Indicator: TA1538, Metabolic Activation: NONE, Method: STANDARD PLATE.
Where [15] appears, read: Test System: AMES SALMONELLA TYPHIMURIUM, Strain/Indicator: TA1538, Metabolic Activation: RAT, LIVER, S-9, AROCLOR 1254, Method: STANDARD PLATE.
The mark [16] stands for this setting: Test System: AMES SALMONELLA TYPHIMURIUM, Strain/Indicator: TA1535, Metabolic Activation: NONE, Method: PREINCUBATION
Setting [17] is: Test System: AMES SALMONELLA TYPHIMURIUM, Strain/Indicator: TA1537, Metabolic Activation: NONE, Method: PREINCUBATION
[18] abbreviates: Test System: AMES SALMONELLA TYPHIMURIUM, Strain/Indicator: TA98, Metabolic Activation: NONE, Method: PREINCUBATION
Setting [19] is: Test System: AMES SALMONELLA TYPHIMURIUM, Strain/Indicator: TA100, Metabolic Activation: NONE, Method: PREINCUBATION

As to `Nc1ccc(S(=O)(=O)Nc2cnc3c(Cl)cccc3n2)cc1`, the mutagenic call is “inactive; negative” under setting [1]; “inactive; negative” under setting [2]; “inactive; negative” under setting [3]; “inactive; negative” under setting [4]; “inactive; negative” under setting [5]; “inactive; negative” under setting [6]. Also, the mutagenic call under setting [7] was “inactive; negative”; the mutagenic call under setting [8] is “inactive; negative”; the mutagenic call under setting [9] was “inactive; negative”; the mutagenic call under setting [10] was “inactive; negative”; the mutagenic call under setting [11] was “inactive; negative”; the mutagenic call under setting [12] was “inactive; negative”. The mutagenic call is “inactive; negative” under setting [13]; “inactive; negative” under setting [14]; “inactive; negative” under setting [15]; “inactive; negative. reevaluation of results: negative” (Test System: MOUSE LYMPHOMA, Strain/Indicator: L5178Y (TK+/TK-), Metabolic Activation: NONE, Method: SUSPENSION/PLATE); “inactive; negative. reevaluation of results: negative” (Test System: MOUSE LYMPHOMA, Strain/Indicator: L5178Y (TK+/TK-), Metabolic Activation: RAT, LIVER, S-9, AROCLOR 1254, Method: SUSPENSION/PLATE).
As to `C[C@@H]1CC[C@@]2(OC1)O[C@H]1C[C@H]3[C@@H]4CC=C5C[C@@H](O)CC[C@]5(C)[C@H]4CC[C@]3(C)[C@H]1[C@@H]2C`, the mutagenic call under setting [1] is “inactive; negative”; the mutagenic call under setting [2] was “inactive; negative”; the mutagenic call under setting [3] is “inactive; negative”; the mutagenic call under setting [4] is “inactive; negative”; the mutagenic call under setting [5] is “inactive; negative”; the mutagenic call under setting [6] was “inactive; negative”. Besides, the mutagenic call reads like this: under setting [7], “inactive; negative”; under setting [8], “inactive; negative”; under setting [9], “inactive; negative”; under setting [10], “inactive; negative”; under setting [11], “inactive; negative”; under setting [12], “inactive; negative”. Besides, the mutagenic call is “inactive; negative” under setting [13], “inactive; negative” under setting [14] and “inactive; negative” under setting [15].
Turning to `Nc1cccc2nc3ccccc3cc12`, the mutagenic call under setting [16] was “inactive; negative”; the mutagenic call (Test System: AMES SALMONELLA TYPHIMURIUM, Strain/Indicator: TA1535, Metabolic Activation: RAT, LIVER, S-9, TETRACHLOROBIPHENYL, Method: PREINCUBATION) was “inactive; negative”; the mutagenic call under setting [17] is “active; positive”; the mutagenic call (Test System: AMES SALMONELLA TYPHIMURIUM, Strain/Indicator: TA1537, Metabolic Activation: RAT, LIVER, S-9, TETRACHLOROBIPHENYL, Method: PREINCUBATION) was “active; positive”; the mutagenic call (Test System: AMES SALMONELLA TYPHIMURIUM, Strain/Indicator: TA1538, Metabolic Activation: NONE, Method: PREINCUBATION) is “inactive; negative”; the mutagenic call (Test System: AMES SALMONELLA TYPHIMURIUM, Strain/Indicator: TA1538, Metabolic Activation: RAT, LIVER, S-9, TETRACHLOROBIPHENYL, Method: PREINCUBATION) was “active; positive”. Moreover, the mutagenic call (Test System: AMES SALMONELLA TYPHIMURIUM, Strain/Indicator: TA1977, Metabolic Activation: NONE, Method: PREINCUBATION) was “active; positive”; the mutagenic call (Test System: AMES SALMONELLA TYPHIMURIUM, Strain/Indicator: TA1977, Metabolic Activation: RAT, LIVER, S-9, TETRACHLOROBIPHENYL, Method: PREINCUBATION) was “active; positive”; the mutagenic call (Test System: AMES SALMONELLA TYPHIMURIUM, Strain/Indicator: TA1978, Metabolic Activation: RAT, LIVER, S-9, TETRACHLOROBIPHENYL, Method: PREINCUBATION) is “inactive; negative”.
In the case of `COC(=O)CC(=O)OC`, the mutagenic call runs as follows: under setting [18], “inactive; negative”; (Test System: AMES SALMONELLA TYPHIMURIUM, Strain/Indicator: TA98, Metabolic Activation: RAT LIVER S-9, PHENOBARBITAL AND BETA-NAPHTHOFLAVONE, Method: PREINCUBATION) “inactive; negative”; under setting [19], “inactive; negative”; (Test System: AMES SALMONELLA TYPHIMURIUM, Strain/Indicator: TA100, Metabolic Activation: RAT LIVER S-9, PHENOBARBITAL AND BETA-NAPHTHOFLAVONE, Method: PREINCUBATION) “inactive; negative”; under setting [16], “inactive; negative”; (Test System: AMES SALMONELLA TYPHIMURIUM, Strain/Indicator: TA1535, Metabolic Activation: RAT LIVER S-9, PHENOBARBITAL AND BETA-NAPHTHOFLAVONE, Method: PREINCUBATION) “inactive; negative”. Moreover, the mutagenic call is “inactive; negative” under setting [17]; “inactive; negative” (Test System: AMES SALMONELLA TYPHIMURIUM, Strain/Indicator: TA1537, Metabolic Activation: RAT LIVER S-9, PHENOBARBITAL AND BETA-NAPHTHOFLAVONE, Method: PREINCUBATION); “inactive; negative” (Test System: E.COLI, Strain/Indicator: WP2UVRA/PKM101, Metabolic Activation: NONE, Method: PREINCUBATION); “inactive; negative” (Test System: E.COLI, Strain/Indicator: WP2UVRA/PKM101, Metabolic Activation: RAT LIVER S-9, PHENOBARBITAL AND BETA-NAPHTHOFLAVONE, Method: PREINCUBATION).
As for `CCn1cc(C(=O)O)c(=O)c2cnc(N3CCNCC3)nc21`, the mutagenic call (End Point: In vitro micronucleus, Test System: WTK-1 human lymphoma cells, Metabolic Activation: None) is “inactive; negative”; the mutagenic call under setting [18] was “inactive; negative”; the mutagenic call (Test System: AMES SALMONELLA TYPHIMURIUM, Strain/Indicator: TA98, Metabolic Activation: RAT LIVER S-9, AROCLOR 1254, Method: PREINCUBATION) was “inactive; negative”; the mutagenic call under setting [19] is “inactive; negative”; the mutagenic call (Test System: AMES SALMONELLA TYPHIMURIUM, Strain/Indicator: TA100, Metabolic Activation: RAT LIVER S-9, AROCLOR 1254, Method: PREINCUBATION) is “inactive; negative”; the mutagenic call (Test System: AMES SALMONELLA TYPHIMURIUM, Strain/Indicator: TA102, Metabolic Activation: RAT LIVER S-9, AROCLOR 1254, Method: PREINCUBATION) is “active; positive”. Further, the mutagenic call was “inactive; negative” (Test System: AMES SALMONELLA TYPHIMURIUM, Strain/Indicator: TA104, Metabolic Activation: NONE, Method: PREINCUBATION); “inactive; negative” (Test System: AMES SALMONELLA TYPHIMURIUM, Strain/Indicator: TA104, Metabolic Activation: RAT LIVER S-9, AROCLOR 1254, Method: PREINCUBATION); “inactive; negative” (Test System: AMES SALMONELLA TYPHIMURIUM, Strain/Indicator: UHT8414, Metabolic Activation: NONE, Method: PREINCUBATION); “inactive; negative” (Test System: AMES SALMONELLA TYPHIMURIUM, Strain/Indicator: UHT8414, Metabolic Activation: RAT LIVER S-9, AROCLOR 1254, Method: PREINCUBATION).
For `Cc1cc2nccnc2c2nc(N)n(C)c12`, under setting [3], the mutagenic call was “active; positive”.

(Values after PubChem BioAssay AID1259407 (Chemical Carcinogenesis Research Information System (CCRIS), 2018).)
